The subject of data set [1] is PC-3 human prostatic carcinoma cell line. In words: In vitro antitumor activity assay (SRB), PC-3. It is filed as cell-based. The source says: (§1) HeLa human cervical carcinoma cell line, A-549 human non-small cell lung carcinoma cell line, NCI-H2228 human lung carcinoma cell line, NCI-H460 human lung carcinoma cell line, MDA-MB-231 human breast carcinoma cell line, MCF-7 human breast carcinoma cell line, Bel-7402 human hepatic carcinoma cell line, Hep3B human hepatic carcinoma cell line, QGY-7703 human hepatic carcinoma cell line, MV-4-11 human leukemic cell line, DAUDI human leukemic cell line, Jurkat human leukemic cell line, A498 renal carcinoma cell line, LoVo human colon carcinoma cell line, HCT1116 human colon carcinoma cell line, A431 human skin carcinoma cell line, PANC-1 human pancreatic carcinoma cell line, U87-MG human brain carcinoma cell line, SH-SY5Y human brain carcinoma cell line, RPMI-8226 human bone carcinoma cell line, HT1080 human fibrosarcoma cell line, PC-3 human prostatic carcinoma cell line, AGS human gastric adenocarcinoma cell line, and BGC-823 human gastric adenocarcinoma cell line were purchased from the Cell Bank of the Chinese Academy of Sciences.
(§2) The positive control is bufalin (formulated according to the common method), its purity is 98% or more by HPLC-UV and its structure is identified by NMR. The compounds to be tested and the positive control were diluted with normal saline with a concentration gradient of 10^−4 M, 10^−5 M, 10^−6 M, 10^−7 M and 10^−8 M.
(§3) According to cell growth rate, tumor cells in the log phase of growth were seeded into 96-well culture plates at 100 μL per well, and allowed to attach for 24 hours, followed by addition of a test compound or positive control at 10 μL per well. For each concentration, the test was carried out in triplicate wells. Solvent control wells with addition of normal saline into cell culture and a blank well containing only cell culture medium but without cells for zeroing were also included. The tumor cells were incubated for 72 hours at 37° C. under 5% CO2, and then the culture medium (RPMI-1640) was removed. The cells were fixed with 10% cool TCA by incubating for 1 h at 4° C., washed with distilled water for 5 times, and dried naturally in the air. A solution of SRB (Sigma) (4 mg/mL) in 1% glacial acetic acid was added at 100 μL per well, and the cells were stained for 15 minutes at room temperature, and the supernatant was discarded. The plates were washed for 5 times with 1% acetic acid, and dried in air. Finally, Tris solution was added at 150 μL per well, and the absorbance (A) was measured at a wavelength of 515 nm using a microplate reader. The growth inhibition on tumor cell proliferation was calculated according to the following equation:
(§4) Growth Inhibition (%)=[(Absorbance of negative control−Absorbance of blank)−(Absorbance of sample−Absorbance of blank)]/(Absorbance of negative control−Absorbance of blank)×100%
(§5) Drug concentration: 10 μM, 1 μM, 0.1 μM, 10 nM, 1 nM, 0.1 nM.
(§6) IC50 was fitted by GraphPad Prism 4.

For data set [2], the system named is Jurkat human leukemic cell line. In words: In vitro antitumor activity assay (SRB), Jurkat. It is filed as cell-based. The conditions noted are these: 72 h, Table 3.
Source text: as §1, §2
(§7) According to cell growth rate, tumor cells in the log phase of growth were seeded into 96-well culture plates at 100 μL per well, and allowed to attach for 24 hours, followed by addition of a test compound or positive control at 10 μL per well. For each concentration, the test was carried out in triplicate wells. […] Finally, Tris solution was added at 150 μL per well, and the absorbance (A) was measured at a wavelength of 515 nm using a microplate reader. The growth inhibition on tumor cell proliferation was calculated according to the following equation:
(§8) Growth Inhibition (%)=[(Absorbance of negative control−Absorbance of blank)−(Absorbance of sample−Absorbance of blank)]/(Absorbance of negative control−Absorbance of blank)×100% […]

Data set [3] has as its system U87-MG human brain carcinoma cell line. Description: In vitro antitumor activity assay (SRB), U87-MG. It is filed as cell-based. The conditions noted are these: 72 h, Table 3.
Source text: as §1, §2, §7, §8

For data set [4], the system named is HepG2 human-derived tumor cell line. Description: In vitro antitumor activity assay (SRB), HepG2. Type of data set: cell-based. The following applies: HepG2, 72 h, Table 3.
Data set [5] deals with A498 renal carcinoma cell line. Description: In vitro antitumor activity assay (SRB), A498. It is filed as cell-based, human. The following applies: A498, 72 h, Table 3.
Source text: as §1, §2, §7, §8

Data set [6] has as its system MDA-MB-231 human breast carcinoma cell line. In words: In vitro antitumor activity assay (SRB), MDA-MB-231. Type of data set: cell-based. The conditions noted are these: MDA-MB-231, 72 h, Table 3.
Source text: as §1, §2, §7, §8

In data set [7] the test system is AGS human gastric adenocarcinoma cell line. Description: In vitro antitumor activity assay (SRB), AGS. It is filed as cell-based. The conditions noted are these: 72 h, Table 3.
Source text: as §1, §2, §7, §8

Data set [8] has as its system DAUDI human leukemic cell line. In words: In vitro antitumor activity assay (SRB), Daudi. The conditions noted are these: 72 h, Table 3. Type of data set: cell-based.
Source text: as §1, §2, §7, §8

The test system of data set [9] is HT1080 human fibrosarcoma cell line. Description: In vitro antitumor activity assay (SRB), HT1080. It is filed as cell-based. The conditions noted are these: HT1080, 72 h, Table 3.
Source text: as §1, §2, §7, §8

For data set [10], the system named is NCI-H460 human lung carcinoma cell line. In words: In vitro antitumor activity assay (SRB), NCI-H460. It is filed as cell-based. The following applies: NCI-H460, 72 h, Table 3.
Source text: as §1, §2, §7, §8

Data set [11] in a line: Maximum tolerable dosage (basis of dosage selection). The conditions noted are these: in vivo. The procedure:
After the tumor size reaches about 200 mm^3, the mice bearing the tumor were grouped randomly into 8 groups according to the tumor size, including the groups of solvent control, positive control rapamycin 5 mg/kg, II1E-01.HCl 2 mg/kg, II1E-01.HCl 4 mg/kg, II1E-01.HCl 6 mg/kg, II1B-02.HCl 4 mg/kg, II1D-06.HCl 4 mg/kg, bufalin 1.6 mg/kg, wherein the dosage selection is based on that the maximum tolerable dosage is 1.6 mg/kg for bufalin and 6 mg/kg for II1E-01.HCl. Rapamycin was administered intravenously once a week (QW) and the other groups were administered intraperitoneally once every other day (QOD). The tumor was weighted after 21 days to calculate the inhibition rate. The equation for calculating inhibition rate (IR) is IR=(WC−WT)/WC×100%, wherein, WC represents the tumor weight of the control group, and WT represents the tumor weight of the treating group.

The test system of data set [12] is QGY-7703 human hepatic carcinoma cell line. Description: In vitro antitumor activity assay (SRB), QGY7703. It is filed as cell-based. The conditions noted are these: QGY7703, 72 h, Table 3.
Source text: as §1, §2, §7, §8

A short description of data set [13]: In vivo acute toxicity assay in mouse. The conditions noted are these: for LD50: in vivo, ip. The procedure:
Sample Name: bufalin, II1E-01.HCl
35.8 mg of II1E-01.HCl was weighted, added with 1.78 mL of anhydrous ethanol, and dissolved completely under ultrasonication. 16.02 mL of 5% glucose injection was added and agitated homogeneously. The solution was filtered with a 0.2 μm filtration membrane to obtain a stock solution with a concentration of 2 mg/mL, wherein the content of ethanol is 10%. The highest dosage is 20 mg/kg, calculated based on the administration volume of 0.1 mL/10 g body weight of mouse.

Data set [14] relates to NCI-H2228 human lung carcinoma cell line. Description: In vitro antitumor activity assay (SRB), NCI-H2228. It is filed as cell-based. The conditions noted are these: NCI-H2228, 72 h, Table 3.
Source text: as §1, §2, §7, §8

For data set [15], the system named is MCF-7 human breast carcinoma cell line. In words: In vitro antitumor activity assay (SRB), MCF-7. It is filed as cell-based.
Source text: as §1, §2, §3, §4, §5, §6

Read-outs that look alike come from different tables or passages of the source.

The results in this text go back to patent US20130005696A1, “BUFADIENOLIDE DERIVATIVES, PREPARING PROCESS THEREOF, COMPOSITION COMPRISING THE SAME AND THE USE THEREOF” (priority 2011, published 2013).

With `C[C@]12CC[C@H](OC(=O)NC3CCNCC3)C[C@H]1CC[C@@H]1[C@@H]2CC[C@]2(C)[C@@H](c3ccc(=O)oc3)CC[C@]12O.Cl` [II1E-01•HCl], the IC50 in [1] (PC-3, 72 h, Table 3, read-out: IC50 (72 h), PC-3) stood at 0.3 ± 0.08 nM; in data set [2], 0.67 ± 0.1 nM; in [3], 1.98 ± 0.3 nM; in data set [4], 0.33 ± 0.02 nM; in data set [5] it was 0.37 ± 0.05 nM; in data set [6], 7.31 ± 0.21 nM. Also, the IC50 amounted to 9.35 ± 0.53 nM in [7]; 2.34 ± 0.22 nM in [8]; 2.34 ± 0.1 nM in [9]; 0.67 ± 0.03 nM in [10]; 1.72 ± 0.08 nM in data set [12]; 1.62 ± 0.5 nM in data set [14]. Further, in [15] (MCF-7, 72 h, Table 3, read-out: IC50 (72 h), MCF-7), the IC50 was determined as 10.8 ± 1.08 nM. In data set [11], the maximum tolerable dosage stood at 6 mg/kg. Also, the “LD50 of intraperitoneal administration, female mouse” value in data set [13] (intraperitoneal, female mouse) is listed as “about 18.21 mg/kg”. In addition, in [13] (intraperitoneal, male mouse), the “LD50 of intraperitoneal administration, male mouse” value is “about 14.75 mg/kg”. Moreover, the “LD50 of intravenous administration, female mouse” value in data set [13] (intravenous, female mouse) was “about 16.51 mg/kg”. In data set [13] (intravenous, male mouse), the “LD50 of intravenous administration, male mouse” value was “about 13.60 mg/kg”. Besides, in data set [13] (mouse), the “in vivo acute toxicity in mouse compared with bufalin, in words” value is on record as “lower in vivo acute toxicity in mouse than bufalin”.
As for `C[C@]12CC[C@H](O)C[C@H]1CC[C@@H]1[C@@H]2CC[C@]2(C)[C@@H](c3ccc(=O)oc3)CC[C@]12O` [bufalin, reference compound], the IC50 was 5 ± 0.45 nM in data set [1] (Homo sapiens, Prostatic carcinoma cell, PC-3, 72 h, Table 3, read-out: IC50 (72 h), PC-3); 17.3 ± 2.76 nM in data set [1] (Homo sapiens, Prostatic carcinoma cell, PC-3, Table 2, read-out: IC50, inhibition of cell proliferation, PC-3); 8.79 ± 2.48 nM in data set [2] (Homo sapiens); 13 ± 1.74 nM in data set [3] (Homo sapiens, U-87 MG); 6.02 ± 0.71 nM in [4] (Homo sapiens); 6.41 ± 0.75 nM in [5] (Homo sapiens). In addition, the IC50 came to 28.7 ± 1.66 nM in data set [6] (Homo sapiens); 51.8 ± 1.34 nM in data set [7] (Homo sapiens); 12.6 ± 0.76 nM in data set [8] (Homo sapiens); 11.3 ± 0.38 nM in [9] (Homo sapiens, HT-1080); 6.89 ± 0.87 nM in [10] (Homo sapiens); 12.8 ± 0.47 nM in [12] (Homo sapiens, QGY-7703). The IC50 in data set [14] (Homo sapiens) was 16.1 ± 2.51 nM; in data set [15] (Homo sapiens, MCF7, MCF-7, 72 h, Table 3, read-out: IC50 (72 h), MCF-7), 45.9 ± 5.18 nM; in [15] (Homo sapiens, MCF7, MCF-7, Table 2, read-out: IC50, inhibition of cell proliferation, MCF-7), 28.8 ± 3.71 nM. Besides, the maximum tolerable dosage in data set [11] (mouse) is given as 1.6 mg/kg. Further, the LD50 is roughly 2.8 mg/kg in data set [13] (intraperitoneal, female mouse, read-out: LD50 of intraperitoneal administration, female mouse) and roughly 2.4 mg/kg in [13] (intraperitoneal, male mouse, read-out: LD50 of intraperitoneal administration, male mouse).
